Assay results reported in article PMC10079235 (PLOS Neglected Tropical Diseases, 2023).
Like-named read-outs stand apart in the source and are kept apart here.

Assays:
HCT-8/WT(NTZ) cells = assay: MTS cytotoxicity (drug tolerance) assay; details: WT(NTZ) cells, after selection by NTZ
Procedure: (§1) Host cell drug tolerance to specified inhibitors was evaluated by 3-(4,5-dimethylthiazol-2-yl)-5-(3-carboxymethoxyphenyl)-2-(4-sulfophenyl)-2H-tetrazolium (MTS) assay. WT and transgenic host cells were seeded in 96-well plates (10,000 cells/well) and cultured for 24 h, followed by the addition of specified compounds at serially diluted concentrations and continued culture for 41 h. After 3 washes with serum-free medium, MTS solution (Saint-Bio, Shanghai, China) was added into the plates (20 μL/well) and incubated at 37°C for 2 h. Optical density at 490 nm (OD490) was measured using a Synergy LX multi-mode reader (BioTek, Winooski, VT). Drug tolerance was indicated by half-maximal cytotoxic concentrations (TC50 values) calculated by nonlinear regression using 4PL model. Selectivity index (SI) for each compound was determined by the ratio between TC50 and EC50 values (SI = TC50/EC50).
(§2) Surviving cells were allowed to recover in drug-free medium for 3–5 d to near confluence (round 1). The selection/recovery cycle were repeated once (round 2). […] Finally, all cells were cultured at the final selection concentrations of PTX or NTZ for ≥7 d, followed by culture in drug-free medium for 14 d. At this time point, cells were used for cytotoxicity and efficacy assays or cryopreserved in a liquid nitrogen tank. The resulting cell lines after PTX or NTZ selection were designated as WT(PTX), NC(PTX) and MDR1(PTX), or WT(NTZ), NC(NTZ) and MDR1(NTZ), respectively (Tables 1 and S2).

HCT-8/NC(NTZ) cells = assay: MTS cytotoxicity (drug tolerance) assay; details: NC(NTZ) cells, after selection by NTZ
Procedure: as §1, §2

HCT-8/MDR1(PTX) cells = details: for TC50: MDR1(PTX) cells, after selection by PTX
Procedure: as §1
(§3) Surviving cells were allowed to recover in drug-free medium for 3–5 d to near confluence (round 1). The selection/recovery cycle were repeated once (round 2). […] The resulting cell lines after PTX or NTZ selection were designated as WT(PTX), NC(PTX) and MDR1(PTX), or WT(NTZ), NC(NTZ) and MDR1(NTZ), respectively (Tables 1 and S2).

HCT-8/WT cells = assay: MTS cytotoxicity (drug tolerance) assay; details: for TC50: WT cells, no drug selection, MTS assay
Procedure: as §1

HCT-8/WT(PTX) cells = assay: MTS cytotoxicity (drug tolerance) assay; details: WT(PTX) cells, after selection by PTX
Procedure: as §1, §3

HCT-8/MDR1(NTZ) cells = assay: MTS cytotoxicity (drug tolerance) assay; details: for TC50: human, 41 h
Procedure: as §1, §3

HCT-8/NC(PTX) cells = assay: MTS cytotoxicity (drug tolerance) assay; details: NC(PTX) cells, after selection by PTX
Procedure: as §1, §3

HCT-8/NC cells = assay: MTS cytotoxicity (drug tolerance) assay; details: no drug selection
HCT-8/MDR1 cells = details: human, 41 h
Cryptosporidium parvum = assay: Anti-cryptosporidial efficacy assay (44-h infection/qRT-PCR); details: for EC50: Cryptosporidium parvum; for On-target rate at EC50 / On-target (Eon) rate at EC50: Eq 2; for Action on parasite target (on-target) conclusion: MDR1-transgenic host cell model; for Eoff, proportion of off-parasite-target effect / Eon, proportion of on-parasite-target effect: Eq 3 and 4
[1] = MDR1, read-out: Antiparasitic efficacy (EC50), C. parvum cultured in MDR1(PTX) host cells
[2] = read-out: Antiparasitic efficacy (EC50), C. parvum cultured in NC host cells
[3] = read-out: Antiparasitic efficacy (EC50), C. parvum cultured in WT host cells
[4] = at EC10, MDR1(NTZ) vs. NC model
[5] = at EC20, MDR1(NTZ) vs. NC model
[6] = at EC30, MDR1(NTZ) vs. NC model
[7] = at EC40, MDR1(NTZ) vs. NC model
[8] = at EC50, MDR1(NTZ) vs. NC model
[9] = at EC60, MDR1(NTZ) vs. NC model
[10] = at EC70, MDR1(NTZ) vs. NC model
[11] = at EC80, MDR1(NTZ) vs. NC model
[12] = at EC90, MDR1(NTZ) vs. NC model
[13] = at EC10, MDR1(PTX) vs. NC model
[14] = at EC20, MDR1(PTX) vs. NC model
[15] = at EC30, MDR1(PTX) vs. NC model
[16] = at EC40, MDR1(PTX) vs. NC model
[17] = at EC50, MDR1(PTX) vs. NC model
[18] = at EC60, MDR1(PTX) vs. NC model
[19] = at EC70, MDR1(PTX) vs. NC model
[20] = at EC80, MDR1(PTX) vs. NC model
[21] = at EC90, MDR1(PTX) vs. NC model

CC(=O)Oc1ccccc1C(=O)Nc1ncc([N+](=O)[O-])s1 [Nitazoxanide]
TC50 (HCT-8/WT(NTZ) cells): 38.70 µM | TC50 (HCT-8/NC(NTZ) cells): 39.09 µM | TC50 (HCT-8/MDR1(PTX) cells): 25.59 µM | TC50 (HCT-8/WT cells): 26.75 µM | Calculated cytotoxicity at EC50 (HCT-8/WT cells; percent inhibition of WT host cell growth at the EC50 concentration, calculated with Eq 5 from k and h): 2.73% | TC50 (HCT-8/WT(PTX) cells): 25.37 µM | Pct change of TC50 (vs NC) (HCT-8/MDR1(NTZ) cells; MDR1(NTZ) vs NC cells): 101.5% | TC50 (HCT-8/MDR1(NTZ) cells): 52.19 µM | TC50 (HCT-8/NC(PTX) cells): 26.76 µM | TC50 (HCT-8/NC cells): 25.90 µM | TC50 (HCT-8/MDR1 cells): 25.28 µM | EC50 (Cryptosporidium parvum; MDR1, read-out: Antiparasitic efficacy (EC50), C. parvum cultured in MDR1(NTZ) host cells): 1.07 µM | EC50 (Cryptosporidium parvum; [1]): 1.06 µM | EC50 (Cryptosporidium parvum; [2]): 1.11 µM | EC50 (Cryptosporidium parvum; [3]): 1.09 µM | Off-target rate at EC50 (Cryptosporidium parvum; MDR1(NTZ) cell model, Eq 1): -3.6% | On-target rate at EC50 (Cryptosporidium parvum; MDR1(NTZ) cell model): 103.6% | On-target rate at EC50 (Cryptosporidium parvum; MDR1(NTZ) cell model, listed as NTZ): 103.6% | Action on parasite target (on-target) conclusion (Cryptosporidium parvum): 100% on-target | Eoff, proportion of off-parasite-target effect (Cryptosporidium parvum; [4]): -7.90% | Eon, proportion of on-parasite-target effect (Cryptosporidium parvum; [4]): 107.90% | Eoff, proportion of off-parasite-target effect (Cryptosporidium parvum; [5]): -6.10% | Eon, proportion of on-parasite-target effect (Cryptosporidium parvum; [5]): 106.10% | Eoff, proportion of off-parasite-target effect (Cryptosporidium parvum; [6]): -5.10% | Eon, proportion of on-parasite-target effect (Cryptosporidium parvum; [6]): 105.10% | Eoff, proportion of off-parasite-target effect (Cryptosporidium parvum; [7]): -4.30% | Eon, proportion of on-parasite-target effect (Cryptosporidium parvum; [7]): 104.30% | Eoff, proportion of off-parasite-target effect (Cryptosporidium parvum; [8]): −3.6% | Eon, proportion of on-parasite-target effect (Cryptosporidium parvum; [8]): 103.6% | Eoff, proportion of off-parasite-target effect (Cryptosporidium parvum; [9]): -2.90% | Eon, proportion of on-parasite-target effect (Cryptosporidium parvum; [9]): 102.90% | Eoff, proportion of off-parasite-target effect (Cryptosporidium parvum; [10]): -2.30% | Eon, proportion of on-parasite-target effect (Cryptosporidium parvum; [10]): 102.30% | Eoff, proportion of off-parasite-target effect (Cryptosporidium parvum; [11]): -1.50% | Eon, proportion of on-parasite-target effect (Cryptosporidium parvum; [11]): 101.50% | Eoff, proportion of off-parasite-target effect (Cryptosporidium parvum; [12]): -0.50% | Eon, proportion of on-parasite-target effect (Cryptosporidium parvum; [12]): 100.50%

CC[C@]1(O)C[C@H]2CN(CCc3c([nH]c4ccccc34)[C@@](C(=O)OC)(c3cc4c(cc3OC)N(C=O)[C@H]3[C@@](O)(C(=O)OC)[C@H](OC(C)=O)[C@]5(CC)C=CCN6CC[C@]43[C@@H]65)C2)C1 [Vincristine, Vincristine sulphate]
TC50 (HCT-8/WT(NTZ) cells): 7.04 µM | TC50 (HCT-8/NC(NTZ) cells): 6.87 µM | TC50 (HCT-8/MDR1(PTX) cells): 21.51 µM | Pct change of TC50 (vs NC) (HCT-8/MDR1(PTX) cells; MDR1(PTX) vs NC cells): 200.8% | TC50 (HCT-8/WT cells): 6.72 µM | TC50 (HCT-8/WT(PTX) cells): 6.96 µM | TC50 (HCT-8/MDR1(NTZ) cells): 12.38 µM | TC50 (HCT-8/NC(PTX) cells): 7.29 µM | TC50 (HCT-8/NC cells): 7.15 µM | TC50 (HCT-8/MDR1 cells): 12.61 µM | EC50 (Cryptosporidium parvum; [1]): 2.77 µM | EC50 (Cryptosporidium parvum; [2]): 1.58 µM | EC50 (Cryptosporidium parvum; [3]): 1.64 µM | On-target (Eon) rate at EC50 (Cryptosporidium parvum; MDR1(PTX) cell model): 62.5% | On-target (Eon) rate at EC50 (Cryptosporidium parvum; MDR1(PTX) cell model, listed as VCT): 62.5% | Off-target (Eoff) rate at EC50 (Cryptosporidium parvum; MDR1(PTX) cell model, from Pct changes of EC50 and TC50 (Eq 1)): 37.5% | Action on parasite target (on-target) conclusion (Cryptosporidium parvum): partially on-target | Eoff, proportion of off-parasite-target effect (Cryptosporidium parvum; [13]): 38.10% | Eon, proportion of on-parasite-target effect (Cryptosporidium parvum; [13]): 61.90% | Eon, proportion of on-parasite-target effect (Cryptosporidium parvum; at EC10, MDR1(PTX) vs. NC model, listed as VCT): 61.9% | Eoff, proportion of off-parasite-target effect (Cryptosporidium parvum; [14]): 38.00% | Eon, proportion of on-parasite-target effect (Cryptosporidium parvum; [14]): 62.00% | Eoff, proportion of off-parasite-target effect (Cryptosporidium parvum; [15]): 37.90% | Eon, proportion of on-parasite-target effect (Cryptosporidium parvum; [15]): 62.10% | Eoff, proportion of off-parasite-target effect (Cryptosporidium parvum; [16]): 37.80% | Eon, proportion of on-parasite-target effect (Cryptosporidium parvum; [16]): 62.20% | Eoff, proportion of off-parasite-target effect (Cryptosporidium parvum; [17]): 37.7% | Eon, proportion of on-parasite-target effect (Cryptosporidium parvum; [17]): 62.3% | Eoff, proportion of off-parasite-target effect (Cryptosporidium parvum; [18]): 37.60% | Eon, proportion of on-parasite-target effect (Cryptosporidium parvum; [18]): 62.40% | Eoff, proportion of off-parasite-target effect (Cryptosporidium parvum; [19]): 37.50% | Eon, proportion of on-parasite-target effect (Cryptosporidium parvum; [19]): 62.50% | Eoff, proportion of off-parasite-target effect (Cryptosporidium parvum; [20]): 37.30% | Eon, proportion of on-parasite-target effect (Cryptosporidium parvum; [20]): 62.70% | Eoff, proportion of off-parasite-target effect (Cryptosporidium parvum; [21]): 37.10% | Eon, proportion of on-parasite-target effect (Cryptosporidium parvum; [21]): 62.90% | Eon, proportion of on-parasite-target effect (Cryptosporidium parvum; at EC90, MDR1(PTX) vs. NC model, listed as VCT): 62.9%
